Data: patent publication US20090018166A1, “New Pyridine Analogues X 161” (ASTRAZENECA AB, priority 2007, published 2009)
Where two headings read alike, the source gives them in different places.

Target: T1, P2Y12 receptor (Homo sapiens, UniProt Q9H244)
T1 construct: expressed in transfected cells; host or cells: CHO cells (membranes)
Assay: Functional inhibition of 2-Me-S-ADP induced P2Y12 signalling (35S-GTPγS binding, membranes from P2Y12 transfected CHO-cells)
Assay type: biochemical
Description: Functional inhibition of- the P2Y12 receptor can be measured by in vitro assays using cell membranes from P2Y12 transfected CHO-cells, the methodology is indicated below.
Functional inhibition of 2-Me-S-ADP induced P2Y12 signalling: 5 μg of membranes were diluted in 200 μl of 200 mM NaCl, 1 mM MgCl2, 50 mM HEPES (pH 7.4), 0.01% BSA, 30 μg/ml saponin and 10 μM GDP. To this was added an EC80 concentration of agonist (2-methyl-thio-adenosine diphosphate), the required concentration of test compound and 0.1 μCi ^35S-GTPγS. The reaction was allowed to proceed at 30° C. for 45 min. Samples were then transferred on to GF/B filters using a cell harvester and washed with wash buffer (50 mM Tris (pH 7.4), 5 mM MgCl2, 50 mM NaCl). Filters were then covered with scintilant and counted for the amount of ^35S-GTPγS retained by the filter. Maximum activity was that determined in the presence of the agonist and minimum activity in the absence of the agonist following subtraction of the value determined for non-specific activity. The effect of compounds at various concentrations was plotted according to the equation
y=A+((B−A)/(1+((C/x)̂D)))
and IC50 estimated where A is the bottom plateau of the curve i.e. the final minimum y value B is the top of the plateau of the curve i.e. the final maximum y value C is the x value at the middle of the curve. This represents the log EC50 value when A+B=100 D is the slope factor. x is the original known x values. Y is the original known y values.

[1] = 35S-GTPγS, EC80 of 2-methyl-thio-adenosine diphosphate, P2Y12 CHO membranes, value given in each example, read-out: GTPγS(IC50 μM)
[2] = functional inhibition of 2-Me-S-ADP induced P2Y12 signalling assay, EC80 of agonist, summary table in Pharmacological Data, read-out: IC50

T1 sequence (Q9H244 whole entry): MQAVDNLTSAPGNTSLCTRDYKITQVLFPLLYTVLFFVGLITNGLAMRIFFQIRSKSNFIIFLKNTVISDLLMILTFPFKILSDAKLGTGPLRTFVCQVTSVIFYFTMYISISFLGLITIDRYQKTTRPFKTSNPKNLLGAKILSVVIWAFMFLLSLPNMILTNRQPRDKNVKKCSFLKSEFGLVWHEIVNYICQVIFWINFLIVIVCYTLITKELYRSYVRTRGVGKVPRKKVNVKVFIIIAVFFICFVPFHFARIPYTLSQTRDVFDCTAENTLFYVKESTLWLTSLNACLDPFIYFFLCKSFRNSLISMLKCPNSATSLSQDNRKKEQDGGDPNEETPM

Row | Molecule | IC50 [1] [µM] | IC50 [2] [µM]
1 | 1-{3-chloro-6-[(2-oxopyrrolidin-1-yl)methyl]-5-pentanoylpyridin-2-yl}-N-[(2,4-difluorobenzyl)sulfonyl]-N-methylpiperidine-4-carboxamide [Example 71] | 0.903 | 
2 | CC(=O)c1cc(C#N)c(N2CCC(C(=O)NS(=O)(=O)Cc3ccccc3)CC2)nc1CN1CCCC1=O [Example 1, 1-{5-Acetyl-3-cyano-6-[(2-oxopyrrolidin-1-yl)methyl]pyridin-2-yl}-N-(benzylsulfonyl)piperidine-4-carboxamide] | 0.283 | 
3 | CCCC(=O)c1cc(C#N)c(N2CCC(C(=O)NS(=O)(=O)Cc3ccccc3)CC2)nc1CN1CCCC1=O [Example 2, N-(Benzylsulfonyl)-1-{5-butyryl-3-cyano-6-[(2-oxopyrrolidin-1-yl)methyl]pyridin-2-yl}piperidine-4-carboxamide] | 0.022 | 
4 | CC(=O)c1cc(C#N)c(N2CCC(C(=O)NS(=O)(=O)Cc3ccccc3)CC2)nc1CN1CCCCC1=O [Example 3, 1-{5-Acetyl-3-cyano-6-[(2-oxopiperidin-1-yl)methyl]pyridin-2-yl}-N-(benzylsulfonyl)piperidine-4-carboxamide] | 1.65 | 
5 | CCCC(=O)c1cc(C#N)c(N2CCC(C(=O)NS(=O)(=O)Cc3ccc(C)cc3)CC2)nc1CN1CCCCC1=O [Example 4, 1-{5-Butyryl-3-cyano-6-[(2-oxopiperidin-1-yl)methyl]pyridin-2-yl}-N-[(4-methylbenzyl)sulfonyl]piperidine-4-carboxamide] | 0.021 | 0.28
6 | CCCC(=O)c1cc(C#N)c(N2CCC(C(=O)NS(=O)(=O)Cc3ccc(C)cc3)CC2)nc1CN1CCCC1=O [Example 5, 1-{5-butyryl-3-cyano-6-[(2-oxopyrrolidin-1-yl)methyl]pyridin-2-yl}-N-[(4-methylbenzyl)sulfonyl]piperidine-4-carboxamide] | 0.009 | 
7 | CCCC(=O)c1cc(C#N)c(N2CCC(C(=O)NS(=O)(=O)Cc3ccc(F)cc3F)CC2)nc1CN1CCCC1=O [Example 6, 1-{5-butyryl-3-cyano-6-[(2-oxopyrrolidin-1-yl)methyl]pyridin-2-yl}-N-[(2,4-difluorobenzyl)sulfonyl]piperidine-4-carboxamide] | 0.0099 | 
8 | CCCC(=O)c1cc(C#N)c(N2CCC(C(=O)NS(=O)(=O)CC3CCCC3)CC2)nc1CN1CCCC1=O [Example 7, 1-{5-Butyryl-3-cyano-6-[(2-oxopyrrolidin-1-yl)methyl]pyridin-2-yl}-N-[(cyclopentylmethyl)sulfonyl]piperidine-4-carboxamide] | 0.028 | 
9 | N#Cc1cc(C(=O)C2CC2)c(CN2CCCC2=O)nc1N1CCC(C(=O)NS(=O)(=O)Cc2ccccc2)CC1 [Example 8, N-(benzylsulfonyl)-1-{3-cyano-5-(cyclopropylcarbonyl)-6-[(2-oxopyrrolidin-1-yl)methyl]pyridin-2-yl}piperidine-4-carboxamide] | 0.032 | 
10 | N#Cc1cc(C(=O)C2CC2)c(CN2CCCC2=O)nc1N1CCC(C(=O)NS(=O)(=O)CC2CCCC2)CC1 [Example 9, 1-{3-Cyano-5-(cyclopropylcarbonyl)-6-[(2-oxopyrrolidin-1-yl)methyl]pyridin-2-yl}-N-[(cyclopentylmethyl)sulfonyl]piperidine-4-carboxamide] | 0.058 | 
11 | CCC(=O)c1cc(C#N)c(N2CCC(C(=O)NS(=O)(=O)Cc3ccccc3)CC2)nc1CN1CCCC1=O [Example 10, N-(benzylsulfonyl)-1-{3-cyano-6-[(2-oxopyrrolidin-1-yl)methyl]-5-propionylpyridin-2-yl}piperidine-4-carboxamide] | 0.098 | 
12 | CCC(=O)c1cc(C#N)c(N2CCC(C(=O)NS(=O)(=O)Cc3ccc(C)cc3)CC2)nc1CN1CCCC1=O [Example 11, 1-{3-cyano-6-[(2-oxopyrrolidin-1-yl)methyl]-5-propionylpyridin-2-yl}-N-[(4-methylbenzyl)sulfonyl]piperidine-4-carboxamide] | 0.037 | 
13 | CCC(=O)c1cc(C#N)c(N2CCC(C(=O)NS(=O)(=O)CC3CCCC3)CC2)nc1CN1CCCC1=O [Example 12, 1-{3-Cyano-6-[(2-oxopyrrolidin-1-yl)methyl]-5-propionylpyridin-2-yl}-N-[(cyclopentylmethyl)sulfonyl]piperidine-4-carboxamide] | 0.328 | 0.13
14 | CN(c1ccccc1)S(=O)(=O)NC(=O)C1CCN(c2nc(CN3CCCCC3=O)c(C(=O)C3CC3)cc2C#N)CC1 [Example 13, 1-{3-Cyano-5-(cyclopropylcarbonyl)-6-[(2-oxopiperidin-1-yl)methyl]pyridin-2-yl}-N-{[methyl(phenyl)amino]sulfonyl}piperidine-4-carboxamide] | 0.153 | 
15 | N#Cc1cc(C(=O)C2CC2)c(CN2CCCCC2=O)nc1N1CCC(C(=O)NS(=O)(=O)CC2CCCC2)CC1 [Example 14, 1-{3-Cyano-5-(cyclopropylcarbonyl)-6-[(2-oxopiperidin-1-yl)methyl]pyridin-2-yl}-N-[(cyclopentylmethyl)sulfonyl]piperidine-4-carboxamide] | 0.461 | 
16 | CC(C)C(=O)c1cc(C#N)c(N2CCC(C(=O)NS(=O)(=O)Cc3ccccc3)CC2)nc1CN1CCCC1=O [Example 15, N-(Benzylsulfonyl)-1-{3-cyano-5-isobutyryl-6-[(2-oxopyrrolidin-1-yl)methyl]pyridin-2-yl}piperidine-4-carboxamide] | 0.106 | 
17 | CC(C)C(=O)c1cc(C#N)c(N2CCC(C(=O)NS(=O)(=O)CC3CCCC3)CC2)nc1CN1CCCC1=O [Example 16, 1-{3-Cyano-5-isobutyryl-6-[(2-oxopyrrolidin-1-yl)methyl]pyridin-2-yl}-N-[(cyclopentylmethyl)sulfonyl]piperidine-4-carboxamide] | 0.396 | 
18 | CCCCC(=O)c1cc(C#N)c(N2CCC(C(=O)NS(=O)(=O)CC3CCCC3)CC2)nc1CN1CCCC1=O [Example 17, 1-{3-Cyano-6-[(2-oxopyrrolidin-1-yl)methyl]-5-pentanoylpyridin-2-yl}-N-[(cyclopentylmethyl)sulfonyl]piperidine-4-carboxamide] | 0.029 | 
19 | CCCCC(=O)c1cc(C#N)c(N2CCC(C(=O)NS(=O)(=O)Cc3ccccc3)CC2)nc1CN1CCCC1=O [Example 18, N-(Benzylsulfonyl)-1-{3-cyano-6-[(2-oxopyrrolidin-1-yl)methyl]-5-pentanoylpyridin-2-yl}piperidine-4-carboxamide] | 0.013 | 
20 | CCCCC(=O)c1cc(C#N)c(N2CCC(C(=O)NS(=O)(=O)Cc3ccc(C)cc3)CC2)nc1CN1CCCC1=O [Example 19, 1-{3-Cyano-6-[(2-oxopyrrolidin-1-yl)methyl]-5-pentanoylpyridin-2-yl}-N-[(4-methylbenzyl)sulfonyl]piperidine-4-carboxamide] | 0.0086 | 
21 | CCCCC(=O)c1cc(C#N)c(N2CCC(C(=O)NS(=O)(=O)Cc3ccc(F)cc3F)CC2)nc1CN1CCCC1=O [Example 20, 1-{3-Cyano-6-[(2-oxopyrrolidin-1-yl)methyl]-5-pentanoylpyridin-2-yl}-N-[(2,4-difluorobenzyl)sulfonyl]piperidine-4-carboxamide] | 0.013 | 
22 | CCCCC(=O)c1cc(C#N)c(N2CCC(C(=O)NS(=O)(=O)N(C)c3ccc(F)cc3)CC2)nc1CN1CCCC1=O [Example 21, 1-{3-Cyano-6-[(2-oxopyrrolidin-1-yl)methyl]-5-pentanoylpyridin-2-yl}-N-{[(4-fluorophenyl)(methyl)amino]sulfonyl}piperidine-4-carboxamide] | 0.023 | 
